Legend:
Experiment in all cases: ActivX kinase probe assay (human PBMC)
Type in all cases: binding
PCTAIRE2, PCTAIRE3 = system: PCTAIRE2, PCTAIRE3
ZAP70 = ZAP70 (Homo sapiens (Human), UniProt P43403); conditions: read-out: percent inhibition
AMPKa1 = AMPKa1 (Homo sapiens (Human), UniProt Q13131); conditions: read-out: percent inhibition
LATS2 = LATS2 (Homo sapiens (Human), UniProt Q9NRM7); conditions: read-out: percent inhibition
DGKA = DGKA (Homo sapiens (Human), UniProt P23743); conditions: read-out: percent inhibition
PIP4K2A = PIP4K2A (Homo sapiens (Human), UniProt P48426); conditions: read-out: percent inhibition
CaMK2d = CaMK2d (Homo sapiens (Human), UniProt Q13557); conditions: read-out: percent inhibition
BRAF = BRAF (Homo sapiens (Human), UniProt P15056); conditions: read-out: percent inhibition
IRE1 = IRE1 (Homo sapiens (Human), UniProt O75460); conditions: read-out: percent inhibition
p70S6K = p70S6K (Homo sapiens (Human), UniProt P23443); conditions: read-out: percent inhibition
p70S6K, p70S6Kb = system: p70S6K, p70S6Kb
KSR1, KSR2 = system: KSR1, KSR2
PKR = PKR (Homo sapiens (Human), UniProt P19525); conditions: read-out: percent inhibition
OSR1 = OSR1 (Homo sapiens (Human), UniProt O95747); conditions: read-out: percent inhibition
Sequence of OSR1 (O95747 whole entry): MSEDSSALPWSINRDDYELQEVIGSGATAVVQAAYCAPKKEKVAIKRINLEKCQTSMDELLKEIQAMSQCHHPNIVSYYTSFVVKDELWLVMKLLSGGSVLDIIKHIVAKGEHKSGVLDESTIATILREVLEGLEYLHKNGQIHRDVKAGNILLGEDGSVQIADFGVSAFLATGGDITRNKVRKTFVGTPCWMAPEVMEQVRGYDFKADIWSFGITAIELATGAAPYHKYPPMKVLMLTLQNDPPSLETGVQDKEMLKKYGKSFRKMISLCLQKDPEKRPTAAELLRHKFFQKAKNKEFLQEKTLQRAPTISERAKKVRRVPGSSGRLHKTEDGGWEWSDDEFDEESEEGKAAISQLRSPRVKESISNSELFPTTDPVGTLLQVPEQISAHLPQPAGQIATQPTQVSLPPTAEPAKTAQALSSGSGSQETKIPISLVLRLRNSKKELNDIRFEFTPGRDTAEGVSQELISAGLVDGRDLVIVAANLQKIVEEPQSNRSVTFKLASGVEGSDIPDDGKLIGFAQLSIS

MAP3K1 = MAP3K1 (Homo sapiens (Human), UniProt Q13233); conditions: read-out: percent inhibition
ABL, ARG = system: ABL, ARG
JAK1 = JAK1 (Homo sapiens (Human), UniProt P23458); conditions: read-out: percent inhibition
EphA1 = EphA1 (Homo sapiens (Human), UniProt P21709); conditions: read-out: percent inhibition
MSK1 domain1 = MSK1 domain1 (Homo sapiens (Human), UniProt O75582); conditions: read-out: percent inhibition
MARK3 = MARK3 (Homo sapiens (Human), UniProt P27448); conditions: read-out: percent inhibition
FGR = FGR (Homo sapiens (Human), UniProt P09769); conditions: read-out: percent inhibition
CaMK2g = CaMK2g (Homo sapiens (Human), UniProt Q13555); conditions: read-out: percent inhibition
NEK6, NEK7 = system: NEK6, NEK7
JAK2 domain2 = JAK2 domain2 (Homo sapiens (Human), UniProt O60674); conditions: read-out: percent inhibition
Sequence of JAK2 domain2 (O60674 whole entry, the tested form may be a part): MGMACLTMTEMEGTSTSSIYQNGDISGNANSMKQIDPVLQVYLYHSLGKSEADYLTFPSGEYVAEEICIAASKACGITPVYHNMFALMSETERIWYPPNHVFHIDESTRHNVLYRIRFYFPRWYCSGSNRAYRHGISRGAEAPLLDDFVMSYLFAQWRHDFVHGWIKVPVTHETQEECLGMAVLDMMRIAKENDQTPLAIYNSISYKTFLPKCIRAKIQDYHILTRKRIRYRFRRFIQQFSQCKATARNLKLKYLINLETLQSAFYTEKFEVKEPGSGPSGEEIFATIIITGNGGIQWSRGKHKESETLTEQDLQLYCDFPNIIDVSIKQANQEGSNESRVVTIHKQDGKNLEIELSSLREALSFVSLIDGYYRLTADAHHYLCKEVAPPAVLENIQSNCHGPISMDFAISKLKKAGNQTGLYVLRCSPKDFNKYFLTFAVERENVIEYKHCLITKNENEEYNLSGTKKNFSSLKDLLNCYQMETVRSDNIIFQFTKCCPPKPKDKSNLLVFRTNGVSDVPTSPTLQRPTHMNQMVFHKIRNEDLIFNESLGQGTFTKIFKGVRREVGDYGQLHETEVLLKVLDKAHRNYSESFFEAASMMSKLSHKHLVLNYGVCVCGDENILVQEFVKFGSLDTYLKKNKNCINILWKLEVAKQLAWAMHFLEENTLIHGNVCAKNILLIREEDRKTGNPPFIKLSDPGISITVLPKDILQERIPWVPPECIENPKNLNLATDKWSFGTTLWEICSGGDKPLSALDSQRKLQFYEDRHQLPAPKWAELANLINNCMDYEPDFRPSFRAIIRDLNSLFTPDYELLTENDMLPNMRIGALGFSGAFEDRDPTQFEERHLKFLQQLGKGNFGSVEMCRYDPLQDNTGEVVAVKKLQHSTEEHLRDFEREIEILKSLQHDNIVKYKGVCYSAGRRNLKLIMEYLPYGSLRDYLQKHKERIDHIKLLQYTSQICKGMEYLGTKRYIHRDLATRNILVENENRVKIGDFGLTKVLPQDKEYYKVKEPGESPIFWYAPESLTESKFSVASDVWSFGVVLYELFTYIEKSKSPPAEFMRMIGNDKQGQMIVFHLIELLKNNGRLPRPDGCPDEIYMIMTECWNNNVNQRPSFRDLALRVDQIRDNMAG

p38d, p38g = system: p38d, p38g
AKT2, AKT3 = system: AKT2, AKT3
Erk5 = Erk5 (Homo sapiens (Human), UniProt Q13164); conditions: read-out: percent inhibition
ULK3 = ULK3 (Homo sapiens (Human), UniProt Q6PHR2); conditions: read-out: percent inhibition
Sequence of ULK3 (Q6PHR2 whole entry): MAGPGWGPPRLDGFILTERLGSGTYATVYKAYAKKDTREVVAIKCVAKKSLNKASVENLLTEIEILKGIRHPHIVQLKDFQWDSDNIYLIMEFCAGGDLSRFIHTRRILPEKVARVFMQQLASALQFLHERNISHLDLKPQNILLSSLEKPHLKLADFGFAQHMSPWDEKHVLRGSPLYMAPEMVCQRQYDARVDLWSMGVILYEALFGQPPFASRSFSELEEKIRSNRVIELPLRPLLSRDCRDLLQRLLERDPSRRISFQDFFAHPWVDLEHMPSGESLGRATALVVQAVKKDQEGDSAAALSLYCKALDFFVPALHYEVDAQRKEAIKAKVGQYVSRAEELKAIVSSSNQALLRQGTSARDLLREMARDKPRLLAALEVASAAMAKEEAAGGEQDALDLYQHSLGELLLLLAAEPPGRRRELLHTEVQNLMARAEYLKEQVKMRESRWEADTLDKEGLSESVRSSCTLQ

GCN2 = GCN2 (Homo sapiens (Human), UniProt Q9P2K8); conditions: read-out: percent inhibition
SGK3 = SGK3 (Homo sapiens (Human), UniProt Q96BR1); conditions: read-out: percent inhibition
STLK5 = STLK5 (Homo sapiens (Human), UniProt Q7RTN6); conditions: read-out: percent inhibition
Sequence of STLK5 (Q7RTN6 whole entry): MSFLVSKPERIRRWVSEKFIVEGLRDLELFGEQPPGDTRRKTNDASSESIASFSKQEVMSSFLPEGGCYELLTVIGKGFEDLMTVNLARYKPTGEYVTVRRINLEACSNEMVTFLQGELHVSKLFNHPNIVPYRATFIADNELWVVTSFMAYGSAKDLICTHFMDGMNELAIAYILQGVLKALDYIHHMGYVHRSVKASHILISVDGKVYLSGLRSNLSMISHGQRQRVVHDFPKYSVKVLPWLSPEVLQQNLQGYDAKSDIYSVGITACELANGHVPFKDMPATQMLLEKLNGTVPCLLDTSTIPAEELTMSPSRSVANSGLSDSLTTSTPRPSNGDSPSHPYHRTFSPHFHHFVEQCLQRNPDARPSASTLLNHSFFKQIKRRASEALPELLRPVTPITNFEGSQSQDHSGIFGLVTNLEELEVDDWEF

AMPKa1, AMPKa2 = system: AMPKa1, AMPKa2
GSK3A = GSK3A (Homo sapiens (Human), UniProt P49840); conditions: read-out: percent inhibition
PIK3CD = PIK3CD (Homo sapiens (Human), UniProt O00329); conditions: read-out: percent inhibition
Sequence of PIK3CD (O00329 whole entry): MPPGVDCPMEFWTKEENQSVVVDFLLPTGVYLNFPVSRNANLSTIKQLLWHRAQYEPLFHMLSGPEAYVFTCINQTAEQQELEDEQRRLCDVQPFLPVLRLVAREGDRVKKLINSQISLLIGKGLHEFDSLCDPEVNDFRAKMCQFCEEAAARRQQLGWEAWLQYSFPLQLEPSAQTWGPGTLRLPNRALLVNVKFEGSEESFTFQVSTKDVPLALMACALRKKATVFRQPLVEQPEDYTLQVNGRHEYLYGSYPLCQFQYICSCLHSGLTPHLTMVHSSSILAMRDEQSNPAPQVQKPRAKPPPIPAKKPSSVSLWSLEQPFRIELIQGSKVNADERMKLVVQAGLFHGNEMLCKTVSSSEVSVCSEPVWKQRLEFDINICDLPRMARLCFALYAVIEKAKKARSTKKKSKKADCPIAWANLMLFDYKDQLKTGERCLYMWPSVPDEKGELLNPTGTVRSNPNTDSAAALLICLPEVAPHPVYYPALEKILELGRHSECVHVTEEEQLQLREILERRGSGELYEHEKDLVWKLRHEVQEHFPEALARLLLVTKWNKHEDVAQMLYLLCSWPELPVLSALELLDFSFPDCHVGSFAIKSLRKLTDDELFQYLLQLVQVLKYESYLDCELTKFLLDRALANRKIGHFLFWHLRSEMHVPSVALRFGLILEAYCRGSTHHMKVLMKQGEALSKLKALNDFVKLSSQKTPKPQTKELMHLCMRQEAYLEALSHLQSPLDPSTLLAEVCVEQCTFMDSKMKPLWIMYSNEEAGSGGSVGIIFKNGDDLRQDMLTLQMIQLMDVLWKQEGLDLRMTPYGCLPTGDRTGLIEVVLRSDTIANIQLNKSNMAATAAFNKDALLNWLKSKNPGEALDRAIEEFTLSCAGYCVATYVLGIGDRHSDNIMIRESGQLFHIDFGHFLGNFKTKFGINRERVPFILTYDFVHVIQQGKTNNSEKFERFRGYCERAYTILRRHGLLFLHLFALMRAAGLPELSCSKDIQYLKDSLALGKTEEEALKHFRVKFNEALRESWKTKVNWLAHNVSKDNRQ
Sequence of PIK3CD (P27986 whole entry partner): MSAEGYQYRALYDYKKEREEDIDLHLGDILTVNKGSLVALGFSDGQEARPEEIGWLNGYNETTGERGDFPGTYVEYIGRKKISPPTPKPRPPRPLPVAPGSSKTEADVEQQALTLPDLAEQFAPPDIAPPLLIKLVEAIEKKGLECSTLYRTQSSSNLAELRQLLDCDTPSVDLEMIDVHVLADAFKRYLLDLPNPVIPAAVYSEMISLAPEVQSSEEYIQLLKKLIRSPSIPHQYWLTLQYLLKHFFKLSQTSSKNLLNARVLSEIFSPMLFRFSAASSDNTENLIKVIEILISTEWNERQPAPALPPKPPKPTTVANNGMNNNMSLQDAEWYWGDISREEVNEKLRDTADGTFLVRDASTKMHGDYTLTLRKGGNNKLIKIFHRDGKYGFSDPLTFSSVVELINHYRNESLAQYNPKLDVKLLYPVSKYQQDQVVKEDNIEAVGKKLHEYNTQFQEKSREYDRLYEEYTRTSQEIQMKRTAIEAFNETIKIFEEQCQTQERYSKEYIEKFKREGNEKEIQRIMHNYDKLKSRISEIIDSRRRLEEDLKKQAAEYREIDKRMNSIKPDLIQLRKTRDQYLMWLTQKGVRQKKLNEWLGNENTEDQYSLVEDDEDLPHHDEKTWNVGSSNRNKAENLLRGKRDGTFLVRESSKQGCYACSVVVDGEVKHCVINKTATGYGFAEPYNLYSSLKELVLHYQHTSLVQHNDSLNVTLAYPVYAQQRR

MAST3 = MAST3 (Homo sapiens (Human), UniProt O60307); conditions: read-out: percent inhibition
PYK2 = PYK2 (Homo sapiens (Human), UniProt Q14289); conditions: read-out: percent inhibition

Sequence of ZAP70 (P43403 whole entry): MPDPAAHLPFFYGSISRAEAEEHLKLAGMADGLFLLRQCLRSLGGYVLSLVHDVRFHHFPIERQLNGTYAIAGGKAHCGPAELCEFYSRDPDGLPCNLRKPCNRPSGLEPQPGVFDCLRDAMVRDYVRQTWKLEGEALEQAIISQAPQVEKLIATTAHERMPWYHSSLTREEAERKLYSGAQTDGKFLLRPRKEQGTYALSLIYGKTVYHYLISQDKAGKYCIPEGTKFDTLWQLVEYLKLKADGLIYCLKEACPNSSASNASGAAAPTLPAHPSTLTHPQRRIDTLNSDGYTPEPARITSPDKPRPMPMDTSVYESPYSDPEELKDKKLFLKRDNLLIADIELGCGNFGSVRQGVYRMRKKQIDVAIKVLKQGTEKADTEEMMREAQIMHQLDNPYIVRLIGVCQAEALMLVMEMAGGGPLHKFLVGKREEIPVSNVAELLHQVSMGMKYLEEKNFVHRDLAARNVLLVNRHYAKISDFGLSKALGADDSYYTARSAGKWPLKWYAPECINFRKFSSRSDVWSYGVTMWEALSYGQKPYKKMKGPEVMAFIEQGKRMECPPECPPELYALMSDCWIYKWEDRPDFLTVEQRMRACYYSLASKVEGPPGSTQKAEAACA

N#Cc1cccc(-c2c[nH]c3ncnc(N4CCOCC4)c23)c1 [Example 4, 3-[4-(Morpholin-4-yl)-7H-pyrrolo[2,3-d]pyrimidin-5-yl]benzonitrile]
percent inhibition (PCTAIRE2, PCTAIRE3; 0.1 μM): −5.4%
percent inhibition (PCTAIRE2, PCTAIRE3; 1 μM): 24.7%
inhibition at 0.1 µM (ZAP70): -4.9%
inhibition at 1 µM (ZAP70): 6.8%
inhibition at 0.1 µM (AMPKa1): -2.1%
inhibition at 1 µM (AMPKa1): 16.4%
inhibition at 0.1 µM (LATS2): -7.2%
inhibition at 1 µM (LATS2): 16.2%
inhibition at 0.1 µM (DGKA): -15.9%
inhibition at 1 µM (DGKA): -8.7%
inhibition at 0.1 µM (PIP4K2A): -12.1%
inhibition at 1 µM (PIP4K2A): 1.9%
inhibition at 0.1 µM (CaMK2d): -0.4%
inhibition at 1 µM (CaMK2d): 10.8%
inhibition at 0.1 µM (BRAF): 1.2%
inhibition at 1 µM (BRAF): -1.2%
inhibition at 0.1 µM (IRE1): -16%
inhibition at 1 µM (IRE1): 1.8%
inhibition at 0.1 µM (p70S6K): -9%
inhibition at 1 µM (p70S6K): 11.1%
percent inhibition (p70S6K, p70S6Kb; 0.1 μM): −10.5%
percent inhibition (p70S6K, p70S6Kb; 1 μM): −9.6%
percent inhibition (KSR1, KSR2; 0.1 μM): −8.7%
percent inhibition (KSR1, KSR2; 1 μM): 11.7%
inhibition at 0.1 µM (PKR): -3.3%
inhibition at 1 µM (PKR): 7.2%
inhibition at 0.1 µM (OSR1): -23.1%
inhibition at 1 µM (OSR1): -55.4%
inhibition at 0.1 µM (MAP3K1): 6.4%
inhibition at 1 µM (MAP3K1): 44.5%
percent inhibition (ABL, ARG; 0.1 μM): −29.4%
percent inhibition (ABL, ARG; 1 μM): −0.9%
inhibition at 0.1 µM (JAK1): -9.3%
inhibition at 1 µM (JAK1): 5%
inhibition at 0.1 µM (EphA1): -17%
inhibition at 1 µM (EphA1): -2.5%
inhibition at 0.1 µM (MSK1 domain1): 1%
inhibition at 1 µM (MSK1 domain1): -3.8%
inhibition at 0.1 µM (MARK3): -2.6%
inhibition at 1 µM (MARK3): 23.7%
inhibition at 0.1 µM (FGR): -10.8%
inhibition at 1 µM (FGR): 1.7%
inhibition at 0.1 µM (CaMK2g): -13.6%
inhibition at 1 µM (CaMK2g): 2.9%
percent inhibition (NEK6, NEK7; 0.1 μM): −5.3%
percent inhibition (NEK6, NEK7; 1 μM): −4.9%
inhibition at 0.1 µM (JAK2 domain2): 0.7%
inhibition at 1 µM (JAK2 domain2): 16.4%
percent inhibition (p38d, p38g; 0.1 μM): −17.5%
percent inhibition (p38d, p38g; 1 μM): −5.7%
percent inhibition (AKT2, AKT3; 0.1 μM): −2.6%
percent inhibition (AKT2, AKT3; 1 μM): 6.8%
inhibition at 0.1 µM (Erk5): -5%
inhibition at 1 µM (Erk5): -6.3%
inhibition at 0.1 µM (ULK3): 3.1%
inhibition at 1 µM (ULK3): 5.2%
inhibition at 0.1 µM (GCN2): -13.6%
inhibition at 1 µM (GCN2): 0.6%
inhibition at 0.1 µM (SGK3): -5.5%
inhibition at 1 µM (SGK3): -0.8%
inhibition at 0.1 µM (STLK5): -15.4%
inhibition at 1 µM (STLK5): 1.2%
percent inhibition (AMPKa1, AMPKa2; 0.1 μM): −4.5%
percent inhibition (AMPKa1, AMPKa2; 1 μM): 32.5%
inhibition at 0.1 µM (GSK3A): -0.9%
inhibition at 1 µM (GSK3A): 7.2%
inhibition at 0.1 µM (PIK3CD): -14%
inhibition at 1 µM (PIK3CD): -12.4%
inhibition at 0.1 µM (MAST3): 2.6%
inhibition at 1 µM (MAST3): 0.8%
inhibition at 0.1 µM (PYK2): -3.9%
inhibition at 1 µM (PYK2): 2.5%

— patent publication US9156845B2, “4-(substituted amino)-7H-pyrrolo[2,3-d] pyrimidines as LRRK2 inhibitors” (Pfizer Inc., priority 2012, dated 2015)
